Test results reported in the NIST ThermoML archive (doi:10.1021/je900105g).
Where “and” joins values, the source holds several entries; their conditions need not be identical. Equal entries are not always repeated. ± gives the expanded uncertainty stated by the source.

Details: Liquid, Buoyancy - hydrostatic balance with magnetic suspension - one sinker

Cc1ccccc1 [toluene]
Details | mass density
293.14 K, 580 kPa | 867.3 ± 0.12 kg/m3
293.14 K, 2080 kPa | 868.44 ± 0.12 kg/m3
293.14 K, 2100 kPa | 868.49 ± 0.12 kg/m3
293.14 K, 4080 kPa | 869.92 ± 0.12 kg/m3
293.14 K, 6080 kPa | 871.41 ± 0.12 kg/m3
293.14 K, 8080 kPa | 872.84 ± 0.12 kg/m3
293.14 K, 10080 kPa | 874.27 ± 0.12 kg/m3
293.14 K, 10110 kPa | 874.35 ± 0.12 kg/m3
293.14 K, 15090 kPa | 877.74 ± 0.12 kg/m3
293.14 K, 15110 kPa | 877.83 ± 0.12 kg/m3
293.14 K, 20090 kPa | 881.09 ± 0.12 kg/m3
293.14 K, 20110 kPa | 881.18 ± 0.12 kg/m3
293.14 K, 25090 kPa | 884.33 ± 0.12 kg/m3
293.14 K, 25120 kPa | 884.42 ± 0.12 kg/m3
293.14 K, 30090 kPa | 887.47 ± 0.12 kg/m3
293.14 K, 30120 kPa | 887.56 ± 0.12 kg/m3
293.15 K, 2080 kPa | 868.48 ± 0.12 kg/m3
293.15 K, 4080 kPa | 869.98 ± 0.12 kg/m3
293.15 K, 6080 kPa | 871.45 ± 0.12 kg/m3
293.15 K, 8080 kPa | 872.9 ± 0.12 kg/m3
293.15 K, 10080 kPa | 874.33 ± 0.12 kg/m3
293.15 K, 15080 kPa | 877.8 ± 0.12 kg/m3
293.15 K, 20080 kPa | 881.15 ± 0.12 kg/m3
293.15 K, 25080 kPa | 884.39 ± 0.12 kg/m3
313.14 K, 590 kPa | 848.73 ± 0.12 kg/m3
313.14 K, 2090 kPa | 850.02 ± 0.12 kg/m3
313.14 K, 4090 kPa | 851.7 ± 0.12 kg/m3
313.14 K, 6090 kPa | 853.35 ± 0.12 kg/m3
313.14 K, 8090 kPa | 854.98 ± 0.12 kg/m3
313.14 K, 10090 kPa | 856.57 ± 0.12 kg/m3
313.14 K, 15090 kPa | 860.44 ± 0.12 kg/m3
313.14 K, 20090 kPa | 864.16 ± 0.12 kg/m3
313.14 K, 25090 kPa | 867.74 ± 0.12 kg/m3
333.14 K, 590 kPa | 829.86 ± 0.12 kg/m3
333.14 K, 2090 kPa | 831.32 ± 0.12 kg/m3
333.14 K, 4090 kPa | 833.23 ± 0.12 kg/m3
333.14 K, 6090 kPa | 835.1 ± 0.12 kg/m3
333.14 K, 8090 kPa | 836.93 ± 0.12 kg/m3
333.14 K, 10090 kPa | 838.73 ± 0.12 kg/m3
333.14 K, 15090 kPa | 843.06 ± 0.12 kg/m3
333.14 K, 20090 kPa | 847.2 ± 0.12 kg/m3
333.14 K, 25090 kPa | 851.15 ± 0.12 kg/m3
333.14 K, 30090 kPa | 854.96 ± 0.12 kg/m3
353.14 K, 2090 kPa | 812.26 ± 0.11 kg/m3
353.14 K, 4090 kPa | 814.44 ± 0.11 kg/m3
353.14 K, 6090 kPa | 816.57 ± 0.11 kg/m3
353.14 K, 8090 kPa | 818.63 ± 0.11 kg/m3
353.14 K, 10090 kPa | 820.66 ± 0.11 kg/m3
353.14 K, 15090 kPa | 825.54 ± 0.11 kg/m3
353.14 K, 20090 kPa | 830.16 ± 0.12 kg/m3
353.14 K, 25090 kPa | 834.54 ± 0.12 kg/m3
353.14 K, 30090 kPa | 838.72 ± 0.12 kg/m3
373.15 K, 590 kPa | 790.76 ± 0.11 kg/m3
373.15 K, 2090 kPa | 792.7 ± 0.11 kg/m3 and 792.76 ± 0.11 kg/m3
373.15 K, 4090 kPa | 795.21 ± 0.11 kg/m3 and 795.27 ± 0.11 kg/m3
373.15 K, 6090 kPa | 797.64 ± 0.11 kg/m3 and 797.7 ± 0.11 kg/m3
373.15 K, 8090 kPa | 800 ± 0.11 kg/m3 and 800.07 ± 0.11 kg/m3
373.15 K, 10090 kPa | 802.3 ± 0.11 kg/m3 and 802.37 ± 0.11 kg/m3
373.15 K, 15080 kPa | 807.86 ± 0.11 kg/m3
373.15 K, 15090 kPa | 807.78 ± 0.11 kg/m3
373.15 K, 20080 kPa | 813.03 ± 0.11 kg/m3
373.15 K, 25080 kPa | 817.91 ± 0.11 kg/m3
373.15 K, 30080 kPa | 822.54 ± 0.11 kg/m3
373.49 K, 2100 kPa | 792.38 ± 0.11 kg/m3
373.49 K, 10110 kPa | 802.04 ± 0.11 kg/m3
373.49 K, 15110 kPa | 807.56 ± 0.11 kg/m3
373.49 K, 20120 kPa | 812.74 ± 0.11 kg/m3
373.49 K, 25120 kPa | 817.63 ± 0.11 kg/m3
373.49 K, 30120 kPa | 822.28 ± 0.11 kg/m3
